Results taken from patent US8748116B2, “1L1RL-1 as a cardiovascular disease marker and therapeutic target” (The Brigham and Women s Hospital, Inc., priority 2002, dated 2014).
“Also recorded” adds a separate entry of the source. Starred links: 1 amine or outer side, 2 acyl side, 3 side chain; linkers in the order of their positions; H or OH if unused. Positions of bridges follow the written chain, without caps; N, C: chain ends. Non-standard residues stand in square brackets, D forms with d. Residues, ends and D or L forms follow the SMILES beside them. Chains are numbered I, II in the order given. Actinocin(9to1) = Cc1c2oc3c(C)ccc(C(=O)[*:1])c3nc-2c(C(=O)[*:2])c(N)c1=O; NMeV = CN[C@H](C(=O)O)C(C)C; Sar = CNCC(=O)O

Key:
IL1RL-1 mRNA expression = experiment: Northern blot of IL1RL-1 (T1/ST2) mRNA induction in cultured neonatal rat cardiac myocytes, with or without 8% cyclic mechanical strain; assay type: cell-based; details: for effect on the induction of IL1RL-1 mRNA expression by 8% mechanical strain: FIG. 4, applied during strain, actinomycin D 5 μg/ml (2 and 4 hours), cyclohexamide 10 μg/ml; for induction of IL1RL-1 mRNA expression in the absence of mechanical strain: FIG. 2, 3 hours, Ang II 50 nM; for induction of IL1RL-1 mRNA expression in the absence of mechanical strain / rank order potency for the induction of IL1RL-1 mRNA expression / induction of IL1RL-1 mRNA expression by the agent alone: IL-1β 10 ng/ml; for induction of IL1RL-1 mRNA expression in the absence of mechanical strain / rank order potency for the induction of T1/ST2 mRNA expression: PMA 200 nM; for rank order potency for the induction of IL1RL-1 mRNA expression: PMA 100 ng/ml, 8% strain; for induction of IL1RL-1 mRNA expression by the agent alone: PMA 100 ng/ml in the absence of strain; for rank order potency for the induction of T1/ST2 mRNA expression: strain 8%, 1 and 3 hours
Excerpt: The approach to mechanical stimulation used an apparatus that has multiple platens that contact the underside of silicone elastomer membranes to apply a spatially isotropic biaxial strain profile to the membrane (Schaffer J L, et al., J Orthop Res, 1993, 12:709-719; and U.S. Provisional Patent application 60/144,134 filed on Jul. 16, 1999 entitled “AN APPARATUS FOR STUDYING MYOCARDIAL MECHANICAL OVERLOAD HYPERTROPHY AND USES THEREFOR, by Richard T. Lee. Six individual 78 mm membranes can be stretched at once with varying amplitudes of strain by controlling displacement of each platen with a stepper motor. Measured Green strains are accurate to ˜±0.25% at strains from 1-14% (Cheng G C, et al., Circ Res, 1997, 80:28-36; Brown T D, J Biomechanics, 2000, 33:3-14). Throughout this study, 8% biaxial strain was used.
Neonatal rat ventricular myocytes (NRVM) from 1-day old Sprague-Dawley rats were isolated by previously described methods (Springhorn J P, and Claycomb W C., Biochem J, 1989; 258:73-78; Arstall M A, et al., J Mol Cell Cardiol, 1998, 30:1019-25). NRVM were plated on the coated membrane dish at a density of 2,000,000 cells/dish in DMEM containing 7% FCS and incubated 24 h. Approximate cell confluence was 85-90%. NRVM were then made quiescent by washing with 10 ml of Hanks' balanced salt solution (HBSS, 138 mM NaCl, 5.3 mM KCl, 4.0 mM NaHCO3, 1.3 mM CaCl2, 0.5 mM MgCl2, 0.4 mM MgSO4, 0.4 mM KH2PO4, 0.3 mM Na2HPO4, 5.6 mM glucose; Life Technologies, Inc., Rockville, Md.) twice and incubating with 26 ml of DMEM containing 0.2% FCS for 48-72 hours.
The cDNA clones for differentially expressed genes were obtained by PCR using the GenBank sequences. Each clone was sequenced from both 5′ and 3′ ends to confirm identity. Positive elements in the DNA microarray were confirmed by Northern blot hybridization analysis in at least three independent experiments using three different sources of NRVMs. Total RNA was isolated by the guanidium thiocyanate and phenol chloroform method (Chomcyznski, et al., Anal. Biochem., 1987, 162:156-159). For Northern blotting, 15 μg RNA was loaded on a 1.0% agarose-formaldehyde gel (2.0 mol/l), transferred to a nylon membrane (Amersham Pharmacia Biotech AB, Piscataway, N.J.), and UV cross-linked with a UV Stratalinker (Stratagene, Inc., La Jolla, Calif.). Each probe was hybridized with ExpressHyb solution (Clontech Labs., Inc., Palo Alto, Calif.) at 68° C. for 1 hour. The membrane was washed with 2×SSC, 0.05% SDS solution for 30 to 40 minutes and three times at room temperature and 0.1×SSC, 0.1% SDS solution with continuous shaking at 50° C. for 40 minutes. The membrane was exposed to film at −80° C., and radiographs were scanned and analyzed with Optimas 5.0 software (Optimas Co./Media Cybernetics, Silver Springs, Md.). Densitometric units were normalized to the ethidium-stained 28S ribosomal subunit on the membrane.
T1/ST2 mRNA is induced by mechanical strain in cultured neonatal cardiac myocytes. Neonatal rat ventricular myocytes were isolated by collagenase digestion, plated on fibronectin-coated silicone membrane dishes at a density of 3.5 million cells/dish in 13 ml media as previously described (Yamamoto K, et al. J Biol. Chem. 1999; 274:21840-21846). This technique yields cultures with ≧95% myocytes. Mechanical deformation was applied using a device that provides uniform biaxial cyclic strain as previously described (Yamamoto K, et al. J Biol. Chem. 1999; 274:21840-21846). RNA was extracted (Qiagen) and Northern blotting was performed using as a probe a ^32P-labelled 600 bp PCR fragment specific to rat T1/ST2. Maximal induction occurs at 3 hours, is sustained for 9 hours and declines by 15 hours. […]

T1/ST2 mRNA = T1/ST2 mRNA induction in human adult vascular smooth muscle cells; assay type: cell-based

## C[C@@H]1C[C@@H]([C@H](O)CC2CC(=O)NC(=O)C2)C(=O)[C@@H](C)C1 [cyclohexamide]
IL1RL-1 mRNA expression
  effect on the induction of IL1RL-1 mRNA expression by 8% mechanical strain: blocked the induction

## CCCCCCCCCCCCCC(=O)O[C@@H]1[C@@H](C)[C@@]2(O)[C@@H](C=C(CO)C[C@]3(O)C(=O)C(C)=C[C@@H]23)[C@@H]2C(C)(C)[C@]12OC(C)=O [PMA]
IL1RL-1 mRNA expression
  induction of IL1RL-1 mRNA expression in the absence of mechanical strain: associated with an induction
IL1RL-1 mRNA expression; FIG. 5
  rank order potency for the induction of IL1RL-1 mRNA expression: PMA>strain>IL-1β
  induction of IL1RL-1 mRNA expression by the agent alone: strongest induction
IL1RL-1 mRNA expression; FIG. 9, interleukin-1 10 ng/ml
  rank order potency for the induction of T1/ST2 mRNA expression: PMA>strain>interleukin-1β; also recorded: PMA>strain>IL-1
T1/ST2 mRNA
  induction of T1/ST2 mRNA: not

## OO [H2O2, hydrogen peroxide]
IL1RL-1 mRNA expression; FIG. 3, 8% mechanical strain, H2O2 100 uM
  effect on the strain-induced induction of IL1RL-1: blocks the strain-induced induction
IL1RL-1 mRNA expression; FIG. 3, H2O2 100 uM
  induction of IL1RL-1 in the absence of strain: does not induce

## Cc1c2oc3c(C)ccc(C(=O)N[C@@H]4C(=O)N[C@H](C(C)C)C(=O)N5CCC[C@H]5C(=O)N(C)CC(=O)N(C)[C@@H](C(C)C)C(=O)O[C@@H]4C)c3nc-2c(C(=O)N[C@@H]2C(=O)N[C@H](C(C)C)C(=O)N3CCC[C@H]3C(=O)N(C)CC(=O)N(C)[C@@H](C(C)C)C(=O)O[C@@H]2C)c(N)c1=O [Actinomycin D, actinomycin D] (I: T[dV]P[Sar][NMeV] / II: T[dV]P[Sar][NMeV]; ester I:1-I:C, II:1-II:C; linker I:N-II:N via Actinocin(9to1))
IL1RL-1 mRNA expression
  effect on the induction of IL1RL-1 mRNA expression by 8% mechanical strain: blocked the induction

## angiotensin II
IL1RL-1 mRNA expression
  induction of IL1RL-1 mRNA expression in the absence of mechanical strain: did not induce

## O=S(=O)(O)c1cc(O)c(O)c(S(=O)(=O)O)c1 [TIRON]
IL1RL-1 mRNA expression; FIG. 3, TIRON 10 mM
  mRNA expression of IL1RL-1 in the absence and presence of strain: slightly attenuated

## interleukin-1β [IL-1β]
IL1RL-1 mRNA expression
  induction of T1/ST2 RNA in cardiac myocytes: induce T1/ST2 RNA
  induction of IL1RL-1 mRNA expression in the absence of mechanical strain: associated with an induction
IL1RL-1 mRNA expression; FIG. 5, 8% strain plus IL-1β 10 ng/ml
  induction of IL1RL-1 by mechanical strain in the presence of IL-1β: not further increased
IL1RL-1 mRNA expression; FIG. 5
  rank order potency for the induction of IL1RL-1 mRNA expression: PMA>strain>IL-1β
  induction of IL1RL-1 mRNA expression by the agent alone: induced
IL1RL-1 mRNA expression; FIG. 9, 8% strain plus interleukin-1 10 ng/ml
  induction of T1/ST2 by mechanical strain in the presence of interleukin-1β: not further increased
IL1RL-1 mRNA expression; FIG. 9, interleukin-1 10 ng/ml
  rank order potency for the induction of T1/ST2 mRNA expression: PMA>strain>interleukin-1β
IL1RL-1 mRNA expression; FIG. 9, interleukin-1 10 ng/ml, listed as IL-1
  rank order potency for the induction of T1/ST2 mRNA expression: PMA>strain>IL-1
IL1RL-1 mRNA expression; FIG. 10, interleukin-1 10 ng/ml, 4 hours
  induction of T1/ST2 mRNA in the presence of infection with control adenovirus: induced T1/ST2 mRNA
T1/ST2 mRNA
  induction of T1/ST2 mRNA: induced
